What was measured:
[1] = target: Sphingosine 1-phosphate receptor 1 (Homo sapiens, UniProt P21453); assay: Agonist activity at S1P1 (unknown origin) by HTRF assay
[2] = target: Sphingosine 1-phosphate receptor 3 (Homo sapiens, UniProt Q99500); assay: Agonist activity at S1PR3 (unknown origin) by HTRF assay
Homo sapiens = species on record: Homo sapiens; assay: Ratio of EC50 for S1PR3 (unknown origin) to EC50 for S1PR1 (unknown origin)

Sequence of Sphingosine 1-phosphate receptor 3 (Q99500 whole entry): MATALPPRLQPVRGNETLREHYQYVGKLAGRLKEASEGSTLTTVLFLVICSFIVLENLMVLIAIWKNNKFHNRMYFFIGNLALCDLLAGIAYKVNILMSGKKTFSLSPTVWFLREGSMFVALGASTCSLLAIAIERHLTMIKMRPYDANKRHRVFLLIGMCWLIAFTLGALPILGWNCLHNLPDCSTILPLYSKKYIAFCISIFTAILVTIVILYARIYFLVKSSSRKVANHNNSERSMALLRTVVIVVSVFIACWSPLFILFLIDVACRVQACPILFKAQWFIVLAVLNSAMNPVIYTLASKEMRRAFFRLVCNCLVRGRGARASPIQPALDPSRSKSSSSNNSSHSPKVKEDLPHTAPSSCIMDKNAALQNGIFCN
Sequence of Sphingosine 1-phosphate receptor 1 (P21453 whole entry): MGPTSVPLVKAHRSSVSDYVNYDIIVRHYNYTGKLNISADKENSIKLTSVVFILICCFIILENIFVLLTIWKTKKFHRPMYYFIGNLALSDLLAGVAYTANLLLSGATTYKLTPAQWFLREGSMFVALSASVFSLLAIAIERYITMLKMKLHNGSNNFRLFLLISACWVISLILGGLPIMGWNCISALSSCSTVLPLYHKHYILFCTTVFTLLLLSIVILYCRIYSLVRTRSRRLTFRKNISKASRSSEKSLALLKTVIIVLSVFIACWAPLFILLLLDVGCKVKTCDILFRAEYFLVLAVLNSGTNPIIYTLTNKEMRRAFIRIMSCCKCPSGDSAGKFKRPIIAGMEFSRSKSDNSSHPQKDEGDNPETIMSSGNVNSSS

| EC50 [1] [nM] | EC50 [2] [nM] | Ratio EC50 (Homo sapiens) | Structure (SMILES) |
| --- | --- | --- | --- |
| 469 | 736 | 1.6 | CCc1nc(-c2ccc(-c3ccc(CC[C@@](N)(CO)COP(=O)(O)O)cc3)cc2)co1 |
| 5 | 523 | 105 | CCc1nc(-c2ccc(-c3ccc(CCC(N)(CO)COP(=O)(O)O)cc3)cc2)co1 (racemic) |
| 2.2 | 380 | 173 | CCc1nc(-c2ccc(-c3ccc(CC[C@](N)(CO)COP(=O)(O)O)cc3)cc2)co1 |
| 332 | > 10000 | – | CCc1nc(-c2ccc(-c3ccc(CCC(N)(CO)CO)cc3)cc2)co1 |

— ChEMBL document CHEMBL4627363, “S1P1-selective agonist prodrug IMMH002 is phosphorylated in rats to form an S-configured enantiomer: Synthesis, verification, and biological activity of the in vivo active metabolite” (Bioorg Med Chem Lett, 2020)
